Reference: patent US20050281848A1, “Oleaginous ointments comprising two solubilized bioactive agents for the treatment of psoriasis” (GALDERMA S.A., priority 2004, published 2005)

Columns and labels:
Format in all cases: physicochemical
[1] = Chemical stability of the actives in Composition 2
Method: The compositions of the invention are found particularly effective in conserving satisfactory chemical stability of active principles which are sensitive to oxidation, to water and to aqueous media in general. The term “satisfactory chemical stability” refers to a composition which over a period of at least 3 months, respectively at ambient temperature and at 40° C.:
has an active principles content of at least 80%, in particular at least 90% and more particularly at least 95% of the initial weight content.

[2] = Stability of calcitriol in Miglyol 812 (HPLC assay against a reference); conditions: for Calcitriol content, T0 taken as 100%: calcitriol 30 ppm in Miglyol 812, 0.4% BHT, under nitrogen
Method: The stability of calcitriol was evaluated in the following two oil solvents: Miglyol 812 and Cetiol SN. a) Stability of Calcitriol in Miglyol 812 (Caprylic and 20 Capric Triglycerides): A solution is prepared of calcitriol 30 ppm in qs 100% of Miglyol 812 in the presence of 0.4% of BHT (antioxidant), kept under nitrogen. The initial time (TO) is taken as 100%.

[3] = Stability of calcitriol in Cetiol SN (HPLC assay against a reference); conditions: for Calcitriol content, T0 taken as 100%: calcitriol 30 ppm in Cetiol SN, 0.4% BHT, under nitrogen
Method: b) Stability of Calcitriol in Cetiol SN (Cetearyl Isononanoate): A solution is prepared of calcitriol 30 ppm in qs 100% of Cetiol SN in the presence of 0.4% of BHT and kept under nitrogen. The initial time (TO) is taken as 100%.

Structure (SMILES) | Chemical stability: content of the active ([1]; T0, AT) | Chemical stability: content of the active ([1]; T15 d, 40° C.) | Chemical stability: content of the active ([1]; T15 d, AT) | Calcitriol content, T0 taken as 100% ([2]; +4° C., T2 weeks) [%] | Calcitriol content, T0 taken as 100% ([2]; +4° C., T4 weeks) [%] | Calcitriol content, T0 taken as 100% ([2]; +40° C., T2 weeks) [%] | Calcitriol content, T0 taken as 100% ([2]; +40° C., T4 weeks) [%] | Calcitriol content, T0 taken as 100% ([2]; ambient temperature, T2 weeks) [%] | Calcitriol content, T0 taken as 100% ([2]; ambient temperature, T4 weeks) [%] | Stability in solution ([2]; in caprylic/capric triglyceride, 1 month) | Calcitriol content, T0 taken as 100% ([3]; +4° C., T2 weeks) [%] | Calcitriol content, T0 taken as 100% ([3]; +4° C., T4 weeks) [%] | Calcitriol content, T0 taken as 100% ([3]; +40° C., T2 weeks) [%] | Calcitriol content, T0 taken as 100% ([3]; +40° C., T4 weeks) [%] | Calcitriol content, T0 taken as 100% ([3]; AT, T2 weeks) [%] | Calcitriol content, T0 taken as 100% ([3]; AT, T4 weeks) [%] | Stability in solution ([3]; in cetearyl isononanoate, 1 month)
CCC(=O)O[C@]1(C(=O)CCl)[C@@H](C)C[C@H]2[C@@H]3CCC4=CC(=O)C=C[C@]4(C)[C@@]3(F)[C@@H](O)C[C@@]21C [CLOBETASOL PROPIONATE, clobetasol 17-propionate] | PROPIONATE: 97.3% | PROPIONATE: 92.3 | PROPIONATE: 95.2 | – | – | – | – | – | – | – | – | – | – | – | – | – | –
C=C1/C(=C\C=C2/CCC[C@]3(C)[C@@H]([C@H](C)CCCC(C)(C)O)CC[C@@H]23)C[C@@H](O)C[C@@H]1O [calcitriol] | CALCITRIOL: 97.6% | CALCITRIOL: 86.8 | CALCITRIOL: 95.1 | 98.2 | 105.2 | 93.1 | 95.0 | 95.8 | 98.0 | stable | 103.7 | 97.9 | 99.4 | 98.1 | 99.6 | 98.7 | stable
